Measured values as given in PubChem BioAssay AID2060509 (Molecular Pharmacology Branch, DTP, NCI, 2025).

System: 485176-168-R4-J1-PDC spheroids with HUVEC/MSC, viability
Experiment: Anticancer human tumor 485176-168-R4-J1-PDC patient-derived pancreatic adenocarcinoma cell line growth inhibition [GQUAD]
Conditions: for IC50: curve of first compound; for viability, T/C: stronger effect = lower value
In short: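 Viability of tumor cells grown as complex spheroids with endothelial and stromal cells, exposed to drug combinations. Top concentration at or near clinical Cmax (else 10 microM), diluted in half-log increments.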

[1] = second compound 0.0316 µM, first compound 0.0316 µM
[2] = second compound 0.0316 µM, first compound 0.1 µM
[3] = second compound 0.0316 µM, first compound 0.316 µM
[4] = second compound 0.0316 µM, first compound 1 µM
[5] = second compound 0.0316 µM, first compound 3.16 µM
[6] = second compound 0.0316 µM, first compound 10 µM
[7] = second compound 0.1 µM, first compound 0.0316 µM
[8] = second compound 0.1 µM, first compound 0.1 µM
[9] = second compound 0.1 µM, first compound 0.316 µM
[10] = second compound 0.1 µM, first compound 1 µM
[11] = second compound 0.1 µM, first compound 3.16 µM
[12] = second compound 0.1 µM, first compound 10 µM
[13] = second compound 0.316 µM, first compound 0.0316 µM
[14] = second compound 0.316 µM, first compound 0.1 µM
[15] = second compound 0.316 µM, first compound 0.316 µM
[16] = second compound 0.316 µM, first compound 1 µM
[17] = second compound 0.316 µM, first compound 3.16 µM
[18] = second compound 0.316 µM, first compound 10 µM
[19] = second compound 1 µM, first compound 0.0316 µM
[20] = second compound 1 µM, first compound 0.1 µM
[21] = second compound 1 µM, first compound 0.316 µM
[22] = second compound 1 µM, first compound 1 µM
[23] = second compound 1 µM, first compound 3.16 µM
[24] = second compound 1 µM, first compound 10 µM
[25] = second compound 3.16 µM, first compound 0.0316 µM
[26] = second compound 3.16 µM, first compound 0.1 µM
[27] = second compound 3.16 µM, first compound 0.316 µM
[28] = second compound 3.16 µM, first compound 1 µM
[29] = second compound 3.16 µM, first compound 3.16 µM
[30] = second compound 3.16 µM, first compound 10 µM
[31] = second compound 10 µM, first compound 0.0316 µM
[32] = second compound 10 µM, first compound 0.1 µM
[33] = second compound 10 µM, first compound 0.316 µM
[34] = second compound 10 µM, first compound 1 µM
[35] = second compound 10 µM, first compound 3.16 µM
[36] = second compound 10 µM, first compound 10 µM
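Further: spheroids exposed to compounds for seven days before readout.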
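Wherever viability, T/C is given: percent viability relative to DMSO vehicle control wells as 100%.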

C#Cc1c(F)ccc2cc(O)cc(-c3ncc4c(N5CC6CCC(C5)N6)nc(OCC56CCCN5CC(F)C6)nc4c3F)c12 (stereo not given) + Cc1cnc(CNC(=O)c2c(=O)c3ccc(N4CCCN(C)CC4)nc3n3c2sc2ccccc23)cn1
IC50 (second compound 0.0316 µM): > 10000 nM
IC50 (second compound 0.1 µM): > 10000 nM
IC50 (second compound 0.316 µM): > 10000 nM
IC50 (second compound 1 µM): < 31.6 nM
IC50 (second compound 3.16 µM): < 31.6 nM
IC50 (second compound 10 µM): < 31.6 nM
viability, T/C [1]: 97%
viability, T/C [2]: 89.9%
viability, T/C [3]: 97.7%
viability, T/C [4]: 81%
viability, T/C [5]: 91.9%
viability, T/C [6]: 87.8%
viability, T/C [7]: 78.4%
viability, T/C [8]: 80%
viability, T/C [9]: 68.4%
viability, T/C [10]: 72.3%
viability, T/C [11]: 72.8%
viability, T/C [12]: 76.3%
viability, T/C [13]: 59.3%
viability, T/C [14]: 60%
viability, T/C [15]: 62.3%
viability, T/C [16]: 61.6%
viability, T/C [17]: 63.3%
viability, T/C [18]: 50.9%
viability, T/C [19]: 45.2%
viability, T/C [20]: 50.1%
viability, T/C [21]: 48.6%
viability, T/C [22]: 50.3%
viability, T/C [23]: 45.7%
viability, T/C [24]: 50.5%
viability, T/C [25]: 44%
viability, T/C [26]: 44.7%
viability, T/C [27]: 44.4%
viability, T/C [28]: 38.1%
viability, T/C [29]: 48.7%
viability, T/C [30]: 44.6%
viability, T/C [31]: 40.5%
viability, T/C [32]: 40.4%
viability, T/C [33]: 36.4%
viability, T/C [34]: 35.1%
viability, T/C [35]: 37.5%
viability, T/C [36]: 37.4%

COc1cccc2c1C(=O)c1c(O)c3c(c(O)c1C2=O)CC(O)(C(=O)CO)CC3OC1CC(N)C(O)C(C)O1 (stereo not given) + Cc1cnc(CNC(=O)c2c(=O)c3ccc(N4CCCN(C)CC4)nc3n3c2sc2ccccc23)cn1
IC50 (second compound 0.0316 µM): 398 nM
IC50 (second compound 0.1 µM): 141 nM
IC50 (second compound 0.316 µM): 196 nM
IC50 (second compound 1 µM): < 31.6 nM
IC50 (second compound 3.16 µM): < 31.6 nM
IC50 (second compound 10 µM): < 31.6 nM
viability, T/C [1]: 81.3%
viability, T/C [2]: 60.9%
viability, T/C [3]: 60.5%
viability, T/C [4]: 13.4%
viability, T/C [5]: 3.49%
viability, T/C [6]: 0.42%
viability, T/C [7]: 80.5%
viability, T/C [8]: 55.9%
viability, T/C [9]: 34.5%
viability, T/C [10]: 20.1%
viability, T/C [11]: 1.67%
viability, T/C [12]: 0.88%
viability, T/C [13]: 55.8%
viability, T/C [14]: 50.8%
viability, T/C [15]: 48.7%
viability, T/C [16]: 18.6%
viability, T/C [17]: 6.39%
viability, T/C [18]: 0.16%
viability, T/C [19]: 54.5%
viability, T/C [20]: 41%
viability, T/C [21]: 51.7%
viability, T/C [22]: 28.2%
viability, T/C [23]: 8.43%
viability, T/C [24]: 0.95%
viability, T/C [25]: 41.6%
viability, T/C [26]: 40.2%
viability, T/C [27]: 44.5%
viability, T/C [28]: 28.1%
viability, T/C [29]: 7.56%
viability, T/C [30]: 0.84%
viability, T/C [31]: 49.8%
viability, T/C [32]: 39.7%
viability, T/C [33]: 44.6%
viability, T/C [34]: 30.4%
viability, T/C [35]: 7.78%
viability, T/C [36]: 1.08%

Cc1cccc(N(C)C(=O)C2C(O)CCN2c2nc(C)cc(C(F)(F)F)c2C#N)c1 (stereo not given) + CN(C)c1ccc(Nc2c3ccc(NC(=O)CCN4CCCC4)cc3nc3cc(NC(=O)CCN4CCCC4)ccc23)cc1
IC50 (second compound 0.0316 µM): > 10000 nM
IC50 (second compound 0.1 µM): > 10000 nM
IC50 (second compound 0.316 µM): > 10000 nM
IC50 (second compound 1 µM): > 10000 nM
IC50 (second compound 3.16 µM): > 10000 nM
IC50 (second compound 10 µM): > 10000 nM
viability, T/C [1]: 103%
viability, T/C [2]: 93.5%
viability, T/C [3]: 86.2%
viability, T/C [4]: 105%
viability, T/C [5]: 111%
viability, T/C [6]: 102%
viability, T/C [7]: 91.9%
viability, T/C [8]: 102%
viability, T/C [9]: 98%
viability, T/C [10]: 84.2%
viability, T/C [11]: 94.3%
viability, T/C [12]: 98.9%
viability, T/C [13]: 106%
viability, T/C [14]: 89.1%
viability, T/C [15]: 109%
viability, T/C [16]: 109%
viability, T/C [17]: 118%
viability, T/C [18]: 94.3%
viability, T/C [19]: 93.5%
viability, T/C [20]: 93.6%
viability, T/C [21]: 104%
viability, T/C [22]: 112%
viability, T/C [23]: 101%
viability, T/C [24]: 85.6%
viability, T/C [25]: 110%
viability, T/C [26]: 95.4%
viability, T/C [27]: 80.6%
viability, T/C [28]: 94%
viability, T/C [29]: 111%
viability, T/C [30]: 98.2%
viability, T/C [31]: 97.3%
viability, T/C [32]: 93%
viability, T/C [33]: 81.1%
viability, T/C [34]: 86.7%
viability, T/C [35]: 62%
viability, T/C [36]: 59.2%

C=CCn1c(=O)c2cnc(Nc3ccc(N4CCN(C)CC4)cc3)nc2n1-c1cccc(C(C)(C)O)n1 + CN(C)c1ccc(Nc2c3ccc(NC(=O)CCN4CCCC4)cc3nc3cc(NC(=O)CCN4CCCC4)ccc23)cc1
IC50 (second compound 0.0316 µM): 554 nM
IC50 (second compound 0.1 µM): 544 nM
IC50 (second compound 0.316 µM): 344 nM
IC50 (second compound 1 µM): 450 nM
IC50 (second compound 3.16 µM): 507 nM
IC50 (second compound 10 µM): 459 nM
viability, T/C [1]: 98.2%
viability, T/C [2]: 89.9%
viability, T/C [3]: 79.2%
viability, T/C [4]: 19.5%
viability, T/C [5]: 7.62%
viability, T/C [6]: 4.64%
viability, T/C [7]: 101%
viability, T/C [8]: 88.2%
viability, T/C [9]: 76%
viability, T/C [10]: 21.3%
viability, T/C [11]: 8.2%
viability, T/C [12]: 4.88%
viability, T/C [13]: 116%
viability, T/C [14]: 93.7%
viability, T/C [15]: 53.8%
viability, T/C [16]: 17.2%
viability, T/C [17]: 6.62%
viability, T/C [18]: 4.69%
viability, T/C [19]: 88.7%
viability, T/C [20]: 84.9%
viability, T/C [21]: 62.5%
viability, T/C [22]: 21.5%
viability, T/C [23]: 10.6%
viability, T/C [24]: 4.67%
viability, T/C [25]: 93.1%
viability, T/C [26]: 92.8%
viability, T/C [27]: 71.8%
viability, T/C [28]: 18.2%
viability, T/C [29]: 12.4%
viability, T/C [30]: 4.45%
viability, T/C [31]: 84.4%
viability, T/C [32]: 75.1%
viability, T/C [33]: 62.5%
viability, T/C [34]: 26.4%
viability, T/C [35]: 9.3%
viability, T/C [36]: 6.12%

O=C(c1cc(Cc2n[nH]c(=O)c3ccccc23)ccc1F)N1CCN(C(=O)C2CC2)CC1 + Cc1[nH]c2ccc(F)cc2c1-c1nc2c3cccnc3c3ncccc3c2[nH]1
IC50 (second compound 0.0316 µM): > 10000 nM
IC50 (second compound 0.1 µM): > 10000 nM
IC50 (second compound 0.316 µM): > 10000 nM
IC50 (second compound 1 µM): > 10000 nM
IC50 (second compound 3.16 µM): > 10000 nM
IC50 (second compound 10 µM): > 10000 nM
viability, T/C [1]: 99.9%
viability, T/C [2]: 75.3%
viability, T/C [3]: 85.6%
viability, T/C [4]: 80.5%
viability, T/C [5]: 91.2%
viability, T/C [6]: 69.9%
viability, T/C [7]: 82.6%
viability, T/C [8]: 93.9%
viability, T/C [9]: 90.3%
viability, T/C [10]: 106%
viability, T/C [11]: 83.2%
viability, T/C [12]: 74.9%
viability, T/C [13]: 93.8%
viability, T/C [14]: 90.5%
viability, T/C [15]: 94.6%
viability, T/C [16]: 95.6%
viability, T/C [17]: 77.8%
viability, T/C [18]: 77.3%
viability, T/C [19]: 92.8%
viability, T/C [20]: 78.9%
viability, T/C [21]: 88.1%
viability, T/C [22]: 86.4%
viability, T/C [23]: 101%
viability, T/C [24]: 68.8%
viability, T/C [25]: 91.4%
viability, T/C [26]: 89.2%
viability, T/C [27]: 85.3%
viability, T/C [28]: 77.6%
viability, T/C [29]: 88.1%
viability, T/C [30]: 62.5%
viability, T/C [31]: 78.5%
viability, T/C [32]: 85.3%
viability, T/C [33]: 70.4%
viability, T/C [34]: 77.1%
viability, T/C [35]: 80%
viability, T/C [36]: 57.5%
